Source: US4315018A, “Specific parasiticidal use of 2-benzamido-5-nitro-thiazole derivatives” (priority 1978, dated 1982)
“Also recorded” adds a separate entry of the source.

What was measured:
Dypilidium caninum = assay: Treatment of Dypilidium caninum in dogs (natural infection); format: in vivo; details: 100 mg/kg, tablets containing 0.5 gram, necropsy 21 days after treatment
Excerpt: In general, the testing procedure was substantially the same as in Example 1 except necropsy 21 days after treatment. The treatment was 100% effective.

whipworms = assay: Treatment of nematodes in dogs: whipworms; format: in vivo; details: 100 mg/kg single dose, tablets containing 0.5 g, 3 dogs, necropsy 4 days after treatment
Excerpt: (§1) The general testing procedure was that of Example 1. […] 100% efficacy against whipworms and 65% efficacy against hookworms were found upon necropsy 4 days after treatment using a single dose treatment.

Echinococus granulosus = assay: Treatment of Echinococus granulosus in dogs (experimental infection); format: in vivo; details: 200 mg/kg, 0.5 gram tablets, treated 4 or 6 weeks after infection, necropsy 4 days after treatment
Description: Again, the general testing procedure was that of Example 1. This time 16 dogs to be treated were experimentally infected and divided into two groups along with 4 infected control dogs in each group. The 8 dogs of Group 1 were treated 4 weeks after infection, and the 8 dogs of Group 2 were treated 6 weeks after infection, each at a dose of 200 mg/kg, using the 0.5 gram active ingredient tablets. 100% efficacy of the single dose treatment was found upon necropsy 4 days after treatment.

[1] = Necropsy observations in treated lambs; format: in vivo; details: 48 hours after treatment
Description: (§2) Seven lambs (Group 1, black) were given a single 100 mg/kg of body weight dose of the test material dissolved in a mixture of water and gum syrup (0.5 ml/kg of body weight) orally administered with a syringe.
(§3) Seven lambs (Group 2, red) were given a single 50 mg/kg of body weight dose of the test material dissolved in a mixture of water and gum syrup (0.5 ml/kg of body weight) orally administered with a syringe.
(§4) 48 hours after treatment, necroscopies were performed.

[2] = Side effects of treatment in Taenia pisiformis-infected dogs; format: in vivo, dogs (beagles); details: 75 mg/kg, 15 dogs
Description: (§5) Food and water intake, faecel consistency, vomiting, general appearance and behavior were recorded hourly during the day of treatment and twice daily thereafter.

[3] = Toxicity study in cats, single doses; format: in vivo
Excerpt: (§6) Additional toxicity studies have been carried out in cats and dogs, which can be summarized as follows.
The lethal dose of the test material in cats is greater than 10 g/kg.

[4] = Toxicity study in dogs, single doses; format: in vivo
Excerpt: as §6
The lethal dose of the test material in dogs is greater than 10 g/kg.

Moniezia spp. = assay: Treatment of Moniezia expansa in lambs (natural infestation); format: in vivo
Description: (§7) Twenty lambs spontaneously infested by nematodes and cestodes were removed from a flock near Limoges (Haute-Vienne), France. They were housed in sheepfold --concentrate food, 1 kg per day per lamb, water and hay, ad libitum, were provided.
(§8) The animals were assigned to treatment groups as indicated below:
as §2, §3
(§9) Six lambs (Group 3, blue) were given 0.5 ml/kg of body weight of a mixture of water and gum syrup orally administered with a syringe.
as §4
(§10) Scolices and gastro intestinal worm counts were carried out.

[5] = tested on: Gastro-Intestinal Nematodes; assay: Gastro-intestinal nematodes in lambs, worm counts; format: in vivo
Description: as §7
To confirm the infestation, faeces were taken from the rectum 48 hours prior to treatment and the number of eggs counted.
as §8, §2, §3, §9, §4, §10

hookworms = assay: Treatment of nematodes in dogs: hookworms; format: in vivo
Excerpt: as §1

Taenia pisiformis = assay: Treatment of Taenia pisiformis in dogs (experimental infection, single oral dose); format: in vivo, dogs (beagles)
Description: Fifteen beagles (8 male and 7 female), ranging in age from 8 to 30 months, were individually housed in stainless-steel cages and fed with commercial dog food. Water was provided ad libitum. After 2 weeks acclimatization, each dog was exposed to infection by administering orally 14-20 cysts containing Taenia pisiformis strobilocerci obtained 24 hours before from wild rabbits. Vitality of the cysts was verified by evagination in bile of the dog.
Seven dogs (Group 1) were given the drug 6 weeks after infection with Taenia pisiformis, and the other 8 dogs (Group 2) were given the drug 8 weeks after infection.
as §5
The tapeworms that were found were then removed, counted and examined for scolices.
The emission time of the faeces for each dog was recorded during the day, when possible.
Nineteen days after treatment for Group 1, and 4 days after treatment for Group 2, the dogs were killed and the small intestines were examined in order to reveal the presence of Taenia spp. This 19-day waiting period for Group 1 allowed time for any viable scolices to redevelop, thus making them more easily visible at necropsy.
The intestines and intestinal contents from the pyloric portion of the stomach through the rectum were thoroughly examined for parasites.

[6] = single dose 100 mg/kg, 7 naturally infested lambs

CC(=O)Oc1ccccc1C(=O)Nc1ncc([N+](=O)[O-])s1 [PH 5776, 2-(2'-acetoxy)-benzamido-5-nitro-thiazole]
Effectiveness of treatment (Dypilidium caninum): 100% | Efficacy against whipworms (whipworms): 100% | Efficacy of the single dose treatment (Echinococus granulosus): 100% | Changes in the internal organs and coloration of the tissues ([1]; 100 or 50 mg/kg): No changes in the internal organs and no coloration of the tissues were observed | Coloration of small intestine wall tissues ([1]; treated groups (100 or 50 mg/kg)): slightly colored yellow | Undesirable side effects of the treatment [2]: not found in any of the 15 dogs | Lethal dose [3]: greater than 10 g/kg | Necropsy findings [3]: slight yellow discoloration of the renal cortex | Signs of intoxication (central nervous system) ([3]; doses of 5 and 10 g/kg): a suggestion of central nervous system depression | Signs of intoxication ([3]; single doses of 1 g/kg): Minimal signs (slight diarrhea) of intoxication | Route of excretion ([3]; suggested from necropsy findings): urine as a route of excretion | Lethal dose [4]: greater than 10 g/kg | Signs of intoxication ([4]; single doses of 1, 5 or 10 g/kg): Minimal signs of intoxication related to gastro-intestinal distress | Efficacy against Moniezia spp. (in words) (Moniezia spp.; 50 mg/kg): the efficacy is decreasing | Number of lambs negative after treatment (Moniezia spp.; 50 mg/kg): 3 lambs | Number of lambs still infested with the cestoda (Moniezia spp.; Group 2 (red), 50 mg/kg, 48 hours after treatment): 3 lambs | Activity against Moniezia spp. (Moniezia spp.; [6]): ~100% | Activity against Moniezia spp. (in words) (Moniezia spp.; [6]): very active | After Treatment At Necroscopies: Number Of Worms, Large Intestine ([5]; Group 1, 100 mg/kg): 0 | Effect on round worms / gastro-intestinal nematodes (in words) ([5]; lambs, 48 hours after treatment, 50 and 100 mg/kg): no toxic effect on any of the present round worms; also recorded: does not reveal any efficacy; also recorded: no activity | Efficacy against hookworms (hookworms; 100 mg/kg single dose, tablets containing 0.5 g, 3 dogs, necropsy 4 days after treatment): 65% | Efficacy against hookworms (hookworms; 3 repeated doses of 100 mg/kg at an interval of 7 days): 93% | Effectiveness against Taenia pisiformis (Taenia pisiformis; 75 mg of body weight): effective | Tapeworm material in faeces after the 14th hour (Taenia pisiformis; 75 mg/kg): not found | Tapeworms at necropsy (in words) (Taenia pisiformis; 75 mg/kg, 15 dogs, day 19 (Group 1) and day 4 (Group 2)): tapeworms were not found in any of the 15 dogs; also recorded: None of the dogs on study were positive for tapeworms | Number of dogs showing tapeworm material in the faeces (Taenia pisiformis; Group 1 (7 dogs), 75 mg/kg): 5 dogs | Tapeworm Material In Faeces (8th-14th Hour) (Taenia pisiformis; Group 1, 75 mg/kg, 6 weeks after infection): yes and no | Number of dogs showing tapeworm material in the faeces (Taenia pisiformis; Group 2 (8 dogs), 75 mg/kg): 6 dogs | Tapeworm Material In Faeces (8th-14th Hour) (Taenia pisiformis; Group 2, 75 mg/kg, 8 weeks after infection): yes and no | Number of dogs showing tapeworm material in the faeces (Taenia pisiformis; Groups 1 and 2, out of 15 dogs, 75 mg/kg): 11 dogs
